# Assay results taken from patent publication US20230414607A1, “METHODS OF TREATMENT” (BOW RIVER LLC, priority 2017, published 2023).
# Columns and labels:
# [1] = AUC and Cmax target safe levels of CYP3A4 substrate drugs (Table 1)
# From the text: In various embodiments, the “Target safe levels” are non-limiting examples of the upper limit of fold change or percent of baseline where in some embodiments the benefits of treating the patient for the condition or disease for which the CYP3A4 substrate drug is indicated outweigh the risks associated with the effects of a drug-drug interaction. […] For purposes of the present methods, the blood plasma levels measured during co-administration of the CYP3A4 substrate drug with […] may be used to estimate the posaconazole DDI decay curve, e.g., using equation 1.
# [2] = target: CYP3A4 (Homo sapiens, UniProt P08684); conditions: in vivo; cited from earlier work
# [3] = upper limit where benefits outweigh risks, approximation, can vary by about ±25%
# [4] = component of ivacaftor/tezacaftor
# Sequence of CYP3A4 (P08684 whole entry): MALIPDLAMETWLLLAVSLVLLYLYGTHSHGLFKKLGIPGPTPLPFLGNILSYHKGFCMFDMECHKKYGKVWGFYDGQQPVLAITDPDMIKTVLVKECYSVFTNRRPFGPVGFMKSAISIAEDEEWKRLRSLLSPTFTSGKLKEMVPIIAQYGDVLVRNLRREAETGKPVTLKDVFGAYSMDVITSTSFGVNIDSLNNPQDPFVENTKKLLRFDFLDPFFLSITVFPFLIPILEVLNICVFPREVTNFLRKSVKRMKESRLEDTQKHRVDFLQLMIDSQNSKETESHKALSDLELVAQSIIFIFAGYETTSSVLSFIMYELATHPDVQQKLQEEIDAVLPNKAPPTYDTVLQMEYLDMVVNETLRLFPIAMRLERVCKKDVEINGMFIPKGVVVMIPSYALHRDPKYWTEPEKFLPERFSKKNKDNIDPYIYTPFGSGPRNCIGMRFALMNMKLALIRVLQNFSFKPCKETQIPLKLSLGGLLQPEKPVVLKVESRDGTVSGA
Compound,"AUC target safe level, Fold change ([1]; human)","AUC target safe level, Percent of baseline ([1]; human)","Cmax target safe level, Fold change ([1]; human)","Cmax target safe level, Percent of baseline ([1]; human)",also measured
CN(C(=O)c1ccccc1)[C@@H]1C[C@H]2O[C@@](C)([C@@H]1O)n1c3ccccc3c3c4c(c5c6ccccc6n2c5c31)C(=O)NC4 [CGP62221],3.5 fold,350%,–,–,–
COc1cc2c(cc1OC)[C@H]1C[C@@H](O)[C@H](CC(C)C)CN1CC2 [[+]-α-HTBZ],2.1 fold,210%,1.7 fold,170%,–
CNC(=O)c1ccc(N2C(=S)N(c3cnc(C#N)c(C(F)(F)F)c3)C(=O)C23CCC3)cc1F [apalutamide],1.24 fold,124%,1.38 fold,138%,–
O=C1CCc2ccc(OCCCCN3CCN(c4cccc(Cl)c4Cl)CC3)cc2N1 [aripiprazole],–,–,–,–,"AUC target safe level, Fold change [1, 3]: 1.7 fold; AUC target safe level, Percent of baseline [1, 3]: 170%; Cmax target safe level, Fold change [1, 3]: 1.4 fold; Cmax target safe level, Percent of baseline [1, 3]: 140%"
COc1cc(Nc2c(C#N)cnc3cc(OCCCN4CCN(C)CC4)c(OC)cc23)c(Cl)cc1Cl [bosutinib],–,–,–,–,"AUC co-administration levels, Fold change [2]: 2 fold; AUC co-administration levels, Percent of baseline [2]: 200%; Cmax co-administration levels, Fold change [2]: 1.5 fold; Cmax co-administration levels, Percent of baseline [2]: 150%"
O=c1ccc2ccc(OCCCCN3CCN(c4cccc5sccc45)CC3)cc2[nH]1 [brexpiprazole],2 fold,200%,1.2 fold,120%,–
COc1cc(N2CCC(N3CCN(C)CC3)CC2)ccc1Nc1ncc(Cl)c(Nc2ccccc2P(C)(C)=O)n1 [brigatinib],–,–,–,–,"AUC co-administration levels, Fold change [2]: 2.01 fold; AUC co-administration levels, Percent of baseline [2]: 201%; Cmax co-administration levels, Fold change [2]: 1.21 fold; Cmax co-administration levels, Percent of baseline [2]: 121%"
CO[C@H]1C(=O)[C@]2(C)[C@@H](OC)C[C@H]3OC[C@@]3(OC(C)=O)[C@H]2[C@H](OC(=O)c2ccccc2)[C@]2(O)C[C@H](OC(=O)[C@H](O)[C@@H](NC(=O)OC(C)(C)C)c3ccccc3)C(C)=C1C2(C)C [cabazitaxel],–,–,–,–,"AUC co-administration levels, Fold change [2]: 1.25 fold; AUC co-administration levels, Percent of baseline [2]: 125%"
CN(C)C(=O)N[C@H]1CC[C@H](CCN2CCN(c3cccc(Cl)c3Cl)CC2)CC1 [cariprazine],–,400%,–,–,–
COc1c(OCCCN2CCOCC2)ccc2c1N=C(NC(=O)c1cnc(N)nc1)N1CCN=C21 [copanlisib],1.53 fold,153%,1.03 fold,103%,–
CC(=O)OCC(=O)[C@@]12N=C(C)O[C@@H]1C[C@H]1[C@@H]3CCC4=CC(=O)C=C[C@]4(C)[C@H]3[C@@H](O)C[C@@]12C [deflazacort],3 fold,300%,–,–,–
C[C@H](Nc1ncnc2[nH]cnc12)c1cc2cccc(Cl)c2c(=O)n1-c1ccccc1 [duvelisib],2 fold,200%,1.7 fold,170%,–
COc1cccc(-c2c(C)n(Cc3c(F)cccc3C(F)(F)F)c(=O)n(C[C@H](NCCCC(=O)O)c3ccccc3)c2=O)c1F [elagolix sodium],2.2 fold,220%,1.77 fold,177%,–
COc1cc(OC)cc(N(CCNC(C)C)c2ccc3ncc(-c4cnn(C)c4)nc3c2)c1 [erdafitinib],1.34 fold,134%,1.05 fold,105%,–
CCc1nc(C(N)=O)c(Nc2ccc(N3CCC(N4CCN(C)CC4)CC3)c(OC)c2)nc1NC1CCOCC1 [gilteritinib],2.2 fold,220%,1.20 fold,120%,–
CN1CC[C@@H](NC(=O)Nc2ccc(C#N)cc2)C[C@@H]1c1nc2ccccc2[nH]1 [glasdegib],2.4 fold,240%,1.4 fold,140%,–
C=CC(=O)N1CCC[C@@H](n2nc(-c3ccc(Oc4ccccc4)cc3)c3c(N)ncnc32)C1 [ibrutinib],–,300%,–,–,–
CC(C)(C)c1cc(C(C)(C)C)c(NC(=O)c2c[nH]c3ccccc3c2=O)cc1O [ivacaftor],–,–,–,–,"AUC target safe level, Fold change [1, 4]: 2.95; fold; AUC target safe level, Percent of baseline [1, 4]: 295%;; Cmax target safe level, Fold change [1, 4]: 2.47; fold; Cmax target safe level, Percent of baseline [1, 4]: 247%;; AUC target safe level, Fold change [1, 3]: 3 fold; AUC target safe level, Percent of baseline [1, 3]: 300%; Cmax target safe level, Fold change [1, 3]: 2.7 fold; Cmax target safe level, Percent of baseline [1, 3]: 270%"
CO[C@@H]1[C@H](N(C)C(=O)c2ccccc2)C[C@H]2O[C@]1(C)n1c3ccccc3c3c4c(c5c6ccccc6n2c5c31)C(=O)NC4 [midostaurin],10.4 fold,1040%,–,–,–
CC(C)(NC(=O)C1=C(O)[C@@H]2Oc3c(O)ccc4c3[C@@]23CCN(CC2CC2)[C@H](C4)[C@]3(O)C1)c1nc(-c2ccccc2)no1 [naldemedine],–,–,–,–,"AUC target safe level, Fold change [1, 3]: 1.9 fold; AUC target safe level, Percent of baseline [1, 3]: 190%; Cmax target safe level, Fold change [1, 3]: 1.38 fold; Cmax target safe level, Percent of baseline [1, 3]: 138%"
Cc1[nH]c2ccccc2c1CCNCc1ccc(/C=C/C(=O)NO)cc1 [panobinostat],1.73 fold,173%,1.62 fold,162%,–
CC(C)COc1ccc(CNC(=O)N(Cc2ccc(F)cc2)C2CCN(C)CC2)cc1 [pimavanserin],3 fold,300%,1.5 fold,150%,–
N#CC[C@H](C1CCCC1)n1cc(-c2ncnc3[nH]ccc23)cn1 [ruxolitinib],1.91 fold,191%,1.33 fold,133%,–
CCN(CC)CCNC(=O)c1c(C)[nH]c(/C=C2\C(=O)Nc3ccc(F)cc32)c1C [sunitinib],–,–,–,–,"AUC target safe level, Fold change [1, 3]: 1.51 fold; AUC target safe level, Percent of baseline [1, 3]: 151%; Cmax target safe level, Fold change [1, 3]: 1.49 fold; Cmax target safe level, Percent of baseline [1, 3]: 149%"
CC(C)(CO)c1cc2cc(NC(=O)C3(c4ccc5c(c4)OC(F)(F)O5)CC3)c(F)cc2n1C[C@@H](O)CO [tezacaftor],2.0 fold,200%,–,–,–
C[C@@H]1CCN(C(=O)CC#N)C[C@@H]1N(C)c1ncnc2[nH]ccc12 [tofacitinib],–,175%,–,–,–
COc1cc2c(cc1OC)[C@H]1C[C@@H](OC(=O)[C@@H](N)C(C)C)[C@H](CC(C)C)CN1CC2 [valbenazine],val: 2.2 fold,val: 220%,val: 1.6 fold,val: 160%,–
